US9018395B2, “Pyrazolopyridine and pyrazolopyrimidine derivatives as melanocortin-4 receptor modulators” (Université de Montréal, priority 2011, dated 2015)

The compounds below were run against T1, wild-type human melanocortin 4 receptor (WT-hMC4R) (Homo sapiens, UniProt P32245) (assay: Cyclic AMP assay (HTRF), antagonist competition against NDP-α-MSH). Conditions: HEK293T cells expressing double-tagged WT-hMC4R; cAMP accumulation; 1 hour compound then 4 nM NDP-α-MSH 30 min.
T1 construct: expressed in transfected cells; cDNA from UMR cDNA resource center
T1 sequence (P32245 whole entry): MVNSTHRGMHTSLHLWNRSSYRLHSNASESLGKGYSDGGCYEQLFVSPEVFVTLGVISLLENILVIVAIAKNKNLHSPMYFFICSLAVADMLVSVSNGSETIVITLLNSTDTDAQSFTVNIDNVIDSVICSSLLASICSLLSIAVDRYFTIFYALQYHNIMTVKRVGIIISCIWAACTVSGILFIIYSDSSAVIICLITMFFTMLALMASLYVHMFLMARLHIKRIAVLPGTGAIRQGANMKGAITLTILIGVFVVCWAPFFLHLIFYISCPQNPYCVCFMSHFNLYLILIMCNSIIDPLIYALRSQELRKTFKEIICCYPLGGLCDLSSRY
Assay type: cell-based
Description: Intracellular cyclic 3′-5′ adenosine monophosphate (cAMP) accumulation was measured using a competitive immunoassay based on HTRF (Homogeneous Time-Resolved Fluorescence) technology (cAMP dynamic-2, Cis-Bio).
HEK293T stable cell line expressing double-tagged WT-hMC4R construct were collected and washed in cAMP buffer (1XD-PBS pH 7.4, 0.1% glucose). 40,000 cells/well were then dispensed in 96-well plates in cAMP buffer [1XD-PBS, 1% BSA, 0.1% Glucose, 0.75 mM 3-isobutyl-1methyl-xanthine (IBMX, Sigma)] and incubated either for antagonist competition assay: 1 hour at 37° C. with various concentrations of compound [0.01 nM-10 μM] followed by 30 min incubation at 37° C. with 4 nM of NDP-α-MSH (Sigma) or for agonist assay: 1 hour at 37° C. with various concentrations of compound [0.01 nM-10 μM]. 10,000 cells were transferred in 384-well plates, lysed and incubated with cAMP labeled with the dye d2 and anti-cAMP M-Antibody labeled with Cryptate following the manufacturer's protocol.
Reading of HTRF signal was performed on Artemis TR-FRET plate reader (Cosmo Bio).
All curve fitting was conducted using non-linear regression analyses from PRISM (version 4.0c, GraphPad Inc.) and the determination of Rmax and EC50 or IC50 parameters were obtained from sigmoidal dose-response phase (variable slope) equation.
A cDNA encoding a wild-type human MC4R with a 3 tandem copies of Hemaglutinine (HA) epitote sequence from UMR cDNA resource center was modified using known techniques in the art (e.g., PCR, cloning) to fused in frame at the C-terminal a venus-Yellow Fluorescent Protein (YFP) cDNA.
The resultant cDNA was then subcloned in eukaryotic expression vector, e.g. pcDNA 3.1(+) (Invitrogen).
The double tagged WT-hMC4R was transfected in HEK293T cells with lipofectamine (Invitrogen) following the manufacturer's instructions and permanently transfected clonal cell lines were selected by resistance to the neomycin analog G418.
HEK293T stable cell line expressing wild-type human melanocortin 4 receptor (WT-hMC4R) containing an N-terminal 3xHA epitope tag and an intracellular C-terminal venus-yellow fluorescent protein (v-YFP) were maintained at 37° C. in humidified air containing 5% CO2 in Dulbecoo's modified Eagle's medium (DMEM) supplemented with 10% fetal bovine serum (FBS), 100 U/ml penicillin/streptomycin (DMEM complete/10% FBS). Cells were generally at 70%-80% confluence on the day of assay.

IC50 | Structure (SMILES)
1 to 5 µM | CCCCN(CCCC)C(=O)c1ccn2nc(-c3ccc(OC)cc3)c(CCCN3CCCCC3)c2c1 [Example 1, N,N-Dibutyl-2-(4-methoxyphenyl)-3-(3-(piperidin-1-yl)propyl)pyrazolo[1,5-a]pyridine-5-carboxamide]
1 to 5 µM | COc1ccc(-c2nn3ccc(C(=O)N(CCC(C)C)CCC(C)C)cc3c2CCCN2CCCCC2)cc1 [Example 2]
0.5 to 1 µM | COc1ccc(-c2nn3ccc(C(=O)N(CCC(C)C)CCC(C)C)cc3c2/C=C/CN2CCCCC2)cc1 [Example 3]
1 to 5 µM | CC(C)CCN(CCC(C)C)C(=O)c1ccn2nc(-c3ccc(C(C)(C)C)cc3)c(CCCN3CCCCC3)c2c1 [Example 4]
1 to 5 µM | CC(C)CCN(CCC(C)C)C(=O)c1ccn2nc(-c3ccc(C(C)(C)C)cc3)c(/C=C/CN3CCCCC3)c2c1 [Example 5]
1 to 5 µM | CC(C)CCN(CCC(C)C)C(=O)c1ccn2nc(-c3ccc(C(C)(C)C)cc3)c(/C=C/CN3CCCC3)c2c1 [Example 6]
5 to 15 µM | CCCCN(CCCC)C(=O)c1ccn2nc(-c3ccc(C(C)(C)C)cc3)c(/C=C/CN3CCCCC3)c2c1 [Example 7]
1 to 5 µM | CC(C)CCN(CCC(C)C)C(=O)c1ccn2nc(-c3ccc(C(C)(C)C)cc3)c(CCCN3CCCC3)c2c1 [Example 8]
5 to 15 µM | CCCCN(CCCC)C(=O)c1ccn2nc(-c3ccc(C(C)(C)C)cc3)c(CCCN3CCCC3)c2c1 [Example 9]
0.5 to 1 µM | CC(C)CCN(CCC(C)C)C(=O)c1ccn2nc(-c3ccc(Cl)cc3)c(/C=C/CN3CCCCC3)c2c1 [Example 10, (E)-2-(4-chlorophenyl)-N,N-diisopentyl-3-(3-(piperidin-1-yl)prop-1-en-1-yl)pyrazolo[1,5-a]pyridine-5-carboxamide]
1 to 5 µM | CC(C)CCN(CCC(C)C)C(=O)c1ccn2nc(-c3ccc(Cl)cc3)c(CCCN3CCCCC3)c2c1 [Example 11, 2-(4-Chlorophenyl)-N,N-diisopentyl-3-(3-(piperidin-1-yl)propyl)pyrazolo[1,5-a]pyridine-5-carboxamide]
1 to 5 µM | CCCCN(CCCC)C(=O)c1ccn2nc(-c3ccc(OC)cc3)c(/C=C/CN3CCCCC3)c2c1 [Example 12, (E)-N,N-Dibutyl-2-(4-methoxyphenyl)-3-(3-(piperidin-1-yl)prop-1-enyl)pyrazolo[1,5-a]pyridine-5-carboxamide]
0.5 to 1 µM | COc1cccc(-c2nn3ccc(C(=O)N(CCC(C)C)CCC(C)C)cc3c2/C=C/CN2CCCCC2)c1 [Example 13]
< 0.5 µM | COc1ccc(-c2nn3ccc(C(=O)N(CCC(C)C)CCC(C)C)cc3c2/C=C/CN2CCCCC2)cc1OC [Example 14]
< 0.5 µM | COc1cccc(-c2nn3ccc(C(=O)N(CCC(C)C)CCC(C)C)cc3c2CCCN2CCCCC2)c1 [Example 15]
< 0.5 µM | COc1ccc(-c2nn3ccc(C(=O)N(CCC(C)C)CCC(C)C)cc3c2CCCN2CCCCC2)cc1OC [Example 16]
5 to 15 µM | COc1ccc(-c2nn3ccc(C(=O)N(CCC(C)C)CCC(C)C)cc3c2/C=C/CN(C)C)cc1 [Example 17]
5 to 15 µM | COc1ccc(-c2nn3ccc(C(=O)N(CCC(C)C)CCC(C)C)cc3c2CCCN(C)C)cc1 [Example 18]
1 to 5 µM | CCCCCN(CCCCC)C(=O)c1ccn2nc(-c3ccc(OC)cc3)c(/C=C/CN3CCCCC3)c2c1 [Example 19]
1 to 5 µM | CCOc1ccc(-c2nn3ccc(C(=O)N(CCC(C)C)CCC(C)C)cc3c2/C=C/CN2CCCCC2)cc1 [Example 20]
1 to 5 µM | CCCCCN(CCCCC)C(=O)c1ccn2nc(-c3ccc(OC)cc3)c(CCCN3CCCCC3)c2c1 [Example 21]
0.5 to 1 µM | CCOc1ccc(-c2nn3ccc(C(=O)N(CCC(C)C)CCC(C)C)cc3c2CCCN2CCCCC2)cc1 [Example 22]
1 to 5 µM | COc1ccc(-c2nn3ccc(C(=O)N(CCC(C)C)CCC(C)C)cc3c2/C=C/CN2CCCC2)cc1 [Example 23]
1 to 5 µM | CC(C)CCN(CCC(C)C)C(=O)c1ccn2nc(-c3ccc(C(=O)O)cc3)c(/C=C/CN3CCCCC3)c2c1 [Example 24]
1 to 5 µM | CCCCN(CCC)C(=O)c1ccn2nc(-c3ccc(OC)cc3)c(/C=C/CN3CCCCC3)c2c1 [Example 25]

IC50 | Structure (SMILES)
5 to 15 µM | CCCN(CC1CC1)C(=O)c1ccn2nc(-c3ccc(OC)cc3)c(/C=C/CN3CCCCC3)c2c1 [Example 26]
5 to 15 µM | CCCN(CC1CC1)C(=O)c1ccn2nc(-c3ccc(OC)cc3)c(CCCN3CCCCC3)c2c1 [Example 27]
1 to 5 µM | CC(C)CCN(CCC(C)C)C(=O)c1ccn2nc(-c3cccc(Br)c3)c(/C=C/CN3CCCCC3)c2c1 [Example 28]
0.5 to 1 µM | CC(=O)c1cccc(-c2nn3ccc(C(=O)N(CCC(C)C)CCC(C)C)cc3c2/C=C/CN2CCCCC2)c1 [Example 29]
< 0.5 µM | COC(=O)c1cccc(-c2nn3ccc(C(=O)N(CCC(C)C)CCC(C)C)cc3c2/C=C/CN2CCCCC2)c1 [Example 30]
< 0.5 µM | COC(=O)c1cccc(-c2nn3ccc(C(=O)N(CCC(C)C)CCC(C)C)cc3c2CCCN2CCCCC2)c1 [Example 31]
0.5 to 1 µM | CC(C)CCN(CCC(C)C)C(=O)c1ccn2nc(-c3cccc(C(C)O)c3)c(CCCN3CCCCC3)c2c1 (centres unmarked) [Example 32]
< 0.5 µM | CC(=O)c1cccc(-c2nn3ccc(C(=O)N(CCC(C)C)CCC(C)C)cc3c2CCCN2CCCCC2)c1 [Example 33]
1 to 5 µM | CC(C)CCN(CCC(C)C)C(=O)c1ccn2nc(-c3ccccc3Br)c(/C=C/CN3CCCCC3)c2c1 [Example 34]
1 to 5 µM | CC(=O)c1ccccc1-c1nn2ccc(C(=O)N(CCC(C)C)CCC(C)C)cc2c1/C=C/CN1CCCCC1 [Example 35]
1 to 5 µM | COC(=O)c1ccccc1-c1nn2ccc(C(=O)N(CCC(C)C)CCC(C)C)cc2c1/C=C/CN1CCCCC1 [Example 36]
< 0.5 µM | CC(C)CCN(CCC(C)C)C(=O)c1ccn2nc(-c3cccc(Br)c3)c(CCCN3CCCCC3)c2c1 [Example 37]
1 to 5 µM | CC(C)CCN(CCC(C)C)C(=O)c1ccn2nc(-c3ccccc3Br)c(CCCN3CCCCC3)c2c1 [Example 38]
1 to 5 µM | COC(=O)c1ccccc1-c1nn2ccc(C(=O)N(CCC(C)C)CCC(C)C)cc2c1CCCN1CCCCC1 [Example 39]
1 to 5 µM | CC(=O)c1ccccc1-c1nn2ccc(C(=O)N(CCC(C)C)CCC(C)C)cc2c1CCCN1CCCCC1 [Example 40]
1 to 5 µM | CC(C)CCN(CCC(C)C)C(=O)c1ccn2nc(-c3ccc(Br)cc3)c(/C=C/CN3CCCCC3)c2c1 [Example 41, (E)-2-(4-Bromophenyl)-N,N-diisopentyl-3-(3-(piperidin-1-yl)prop-1-en-1-yl)pyrazolo[1,5-a]pyridine-5-carboxamide]
0.5 to 1 µM | CC(=O)c1ccc(-c2nn3ccc(C(=O)N(CCC(C)C)CCC(C)C)cc3c2/C=C/CN2CCCCC2)cc1 [Example 42, (E)-2-(4-Acetylphenyl)-N,N-diisopentyl-3-(3-(piperidin-1-yl)prop-1-en-1-yl)pyrazolo[1,5-a]pyridine-5-carboxamide]
0.5 to 1 µM | COC(=O)c1ccc(-c2nn3ccc(C(=O)N(CCC(C)C)CCC(C)C)cc3c2/C=C/CN2CCCCC2)cc1 [Example 43, (E)-Methyl 4-(5-(diisopentylcarbamoyl)-3-(3-(piperidin-1-yl)prop-1-en-1-yl)pyrazolo[1,5-a]pyridin-2-yl)benzoate]
0.5 to 1 µM | COC(=O)c1ccc(-c2nn3ccc(C(=O)N(CCC(C)C)CCC(C)C)cc3c2CCCN2CCCCC2)cc1 [Example 44]
< 0.5 µM | CC(C)CCN(CCC(C)C)C(=O)c1ccn2nc(-c3ccc(Br)cc3)c(CCCN3CCCCC3)c2c1 [Example 45]
< 0.5 µM | CC(C)CCN(CCC(C)C)C(=O)c1ccn2nc(-c3ccc(C(C)O)cc3)c(CCCN3CCCCC3)c2c1 (centres unmarked) [Example 46, 2-(4-(1-Hydroxyethyl)phenyl)-N,N-diisopentyl-3-(3-(piperidin-1-yl)propyl)pyrazolo[1,5-a]pyridine-5-carboxamide]
0.5 to 1 µM | CC(=O)c1ccc(-c2nn3ccc(C(=O)N(CCC(C)C)CCC(C)C)cc3c2CCCN2CCCCC2)cc1 [Example 47, 2-(4-Acetylphenyl)-N,N-diisopentyl-3-(3-(piperidin-1-yl)propyl)pyrazolo[1,5-a]pyridine-5-carboxamide]
0.5 to 1 µM | CCCCN(CCCC)C(=O)c1ccn2nc(-c3ccc(F)cc3)c(CCCN3CCCCC3)c2c1 [Example 48]
< 0.5 µM | CC(C)CCN(CCC(C)C)C(=O)c1ccn2nc(-c3ccc(F)cc3)c(CCCN3CCCCC3)c2c1 [Example 49]
1 to 5 µM | CCCCCN(CCCCC)C(=O)c1ccn2nc(-c3ccc(F)cc3)c(CCCN3CCCCC3)c2c1 [Example 50]
